Laboratory results published in PMC2225441, “Partial Restoration of Mutant Enzyme Homeostasis in Three Distinct Lysosomal Storage Disease Cell Lines by Altering Calcium Homeostasis” (PLoS Biology, 2008).

System: ΔF508 CFTR
Assay: not given
Settings: SERCA inhibitor; cited from earlier work

SMILES | folding and trafficking of ΔF508 CFTR
COc1cc(/C=C/C(=O)CC(=O)/C=C/c2ccc(O)c(OC)c2)ccc1O [curcumin] | enhance folding and trafficking of ΔF508 CFTR
C/C=C(/C)C(=O)O[C@H]1C(C)=C2[C@H]([C@@H]1OC(=O)CCCCCCC)[C@@](C)(OC(C)=O)C[C@H](OC(=O)CCC)[C@@]1(O)[C@H]2OC(=O)[C@@]1(C)O [thapsigargin] | enhance folding and trafficking of ΔF508 CFTR

System: L444P fibroblasts
Assay: cytotoxicity to L444P fibroblasts
Assay type: cell-based, human
Settings: high concentrations (>10 μM)

SMILES | toxicity to L444P fibroblasts
COc1ccc([C@@H]2Sc3ccccc3NC(=O)[C@@H]2O)cc1 [Compound 6] | toxic
COc1ccc([C@@H]2Sc3ccccc3NC(=O)[C@@H]2OC(C)=O)cc1 [Compound 5] | toxic

System: L444P GC
Assay: intact cell GC activity assay in homozygous L444P GC patient-derived fibroblasts
Assay type: cell-based, human
Settings: 10 μM; 7 d; intact cell assay; Figure 3D

SMILES | maximum increase of L444P lysosomal GC activity
COc1ccc([C@@H]2Sc3ccccc3N(CCN(C)C)C(=O)[C@@H]2O)cc1 [Compound 2] | 2.1 fold

Same assay, conditions: 30 μM; 7 d; intact cell assay; Figure 3D

SMILES | maximum increase in L444P GC activity
CNCCN1C(=O)[C@H](O)[C@H](c2ccc(O)cc2)Sc2ccccc21 [Compound 4] | 1.2 fold
CN(C)CCN1C(=O)[C@H](O)[C@H](c2ccc(O)cc2)Sc2ccccc21 [Compound 3] | 1.3 fold

Same assay, conditions: 0.3–100 μM; 7 d; intact cell assay; Figure 3D

SMILES | effect on L444P GC activity
COc1ccc([C@@H]2Sc3ccccc3NC(=O)[C@@H]2O)cc1 [Compound 6] | do not increase L444P GC activity
COc1ccc([C@@H]2Sc3ccccc3NC(=O)[C@@H]2OC(C)=O)cc1 [Compound 5] | do not increase L444P GC activity

Same assay, conditions: Figure S4

SMILES | L444P GC folding, trafficking, or lysosomal activity
C/C=C(/C)C(=O)O[C@H]1C(C)=C2[C@H]([C@@H]1OC(=O)CCCCCCC)[C@@](C)(OC(C)=O)C[C@H](OC(=O)CCC)[C@@]1(O)[C@H]2OC(=O)[C@@]1(C)O [thapsigargin] | does not enhance L444P GC folding, trafficking, or lysosomal activity

Same assay, conditions: alone; above 1 nM; 7-d incubation; Figure S4

SMILES | influence on L444P GC activity at higher concentration
C/C=C(/C)C(=O)O[C@H]1C(C)=C2[C@H]([C@@H]1OC(=O)CCCCCCC)[C@@](C)(OC(C)=O)C[C@H](OC(=O)CCC)[C@@]1(O)[C@H]2OC(=O)[C@@]1(C)O [thapsigargin] | decreased L444P GC activity significantly

Same assay, conditions: alone; until 1 nM; 7 d; Figure S4

SMILES | influence on L444P GC activity at low concentration
C/C=C(/C)C(=O)O[C@H]1C(C)=C2[C@H]([C@@H]1OC(=O)CCCCCCC)[C@@](C)(OC(C)=O)C[C@H](OC(=O)CCC)[C@@]1(O)[C@H]2OC(=O)[C@@]1(C)O [thapsigargin] | no influence on GC activity

Same assay, conditions: intact cell GC activity assay; only the named compounds increased activity

SMILES | L444P GC activity, screen of VGCC blockers, ionotropic glutamate receptor inhibitors and other calcium channel blockers
Cc1cc(-c2ccc(/N=N/c3ccc4c(S(=O)(=O)O)cc(S(=O)(=O)O)c(N)c4c3O)c(C)c2)ccc1/N=N/c1ccc2c(S(=O)(=O)O)cc(S(=O)(=O)O)c(N)c2c1O [Evans blue] | only diltiazem and verapamil
O=C(O)c1cc(=O)c2c(Cl)cc(Cl)cc2[nH]1 [5,7-dichlorokynurenic acid] | only diltiazem and verapamil
Fc1ccc(C(c2ccc(F)cc2)N2CCN(C/C=C/c3ccccc3)CC2)cc1 [flunarizine] | only diltiazem and verapamil
COCCOC(=O)C1=C(C)NC(C)=C(C(=O)OC(C)C)C1c1cccc([N+](=O)[O-])c1 (stereo not shown) [nimodipine] | only diltiazem and verapamil
CCOC(=O)C(N)/C=C(\C)CP(=O)(O)O (stereo not shown) [CGP 39551] | only diltiazem and verapamil
O=[N+]([O-])c1cc2nc(O)c(O)nc2cc1[N+](=O)[O-] [DNQX] | only diltiazem and verapamil
NC(=O)OCC(COC(N)=O)c1ccccc1 [felbamate] | only diltiazem and verapamil
CCC1(C)CC(=O)NC1=O (stereo not shown) [ethosuximide] | only diltiazem and verapamil
COc1ccc(CCCOC(Cn2ccnc2)c2ccc(OC)cc2)cc1 (stereo not shown) [SKF 96365] | only diltiazem and verapamil
CC(C)COCC(CN(Cc1ccccc1)c1ccccc1)N1CCCC1 (stereo not shown) [bepridil] | only diltiazem and verapamil
COCC(=O)O[C@]1(CCN(C)CCCc2nc3ccccc3[nH]2)CCc2cc(F)ccc2[C@@H]1C(C)C [mibefradil] | only diltiazem and verapamil
CN(C)C(=O)C(CCN1CCC(O)(c2ccc(Cl)cc2)CC1)(c1ccccc1)c1ccccc1 [loperamide] | only diltiazem and verapamil
CCCCc1oc2ccccc2c1C(=O)c1cc(I)c(OCCN(CC)CC)c(I)c1 [amiodarone] | only diltiazem and verapamil

Same assay, conditions: intact cell GC enzyme assay; 5-d incubation; Figure S1; only the named compound increased activity

SMILES | L444P GC activity, screen of fifteen thermosensitive TRP channel modulators
CC12CCC(CC1=O)C2(C)C (stereo not shown) [camphor] | Only ruthenium red notably increased
N.N.N.N.N.N.N.N.N.N.N.N.N.N.[Cl-].[Cl-].[Cl-].[Cl-].[Cl-].[Cl-].[O-2].[O-2].[Ru+3].[Ru+3].[Ru+4] [ruthenium red] | notably increased
CCCCCCCC/C=C\CCCCCCCC(=O)NCc1ccc(O)c(OC)c1 [olvanil] | Only ruthenium red notably increased
CCCCC/C=C\C/C=C\C/C=C\C/C=C\CCCC(=O)NCCO [anandamide] | Only ruthenium red notably increased
COc1cc(CNC(=O)CCCC/C=C/C(C)C)ccc1O [capsaicin] | Only ruthenium red notably increased
C=CCN=C=S [allylisothiocyanate] | Only ruthenium red notably increased
C=C(C)[C@]12C[C@@H](C)[C@@]34O[C@](Cc5ccccc5)(O[C@@H]1[C@@H]3C=C(COC(=O)Cc1ccc(O)c(OC)c1)C[C@]1(O)C(=O)C(C)=C[C@@H]41)O2 [resiniferatoxin] | Only ruthenium red notably increased
O=C(/C=C/C=C/c1ccc2c(c1)OCO2)N1CCCCC1 [piperine] | Only ruthenium red notably increased
CC1CCC(C(C)C)C(O)C1 (stereo not shown) [menthol] | Only ruthenium red notably increased
Oc1cc2c(cc1O)CN(C(=S)NCCc1ccc(Cl)cc1)CCC2 [capsazepine] | Only ruthenium red notably increased
NCCOB(c1ccccc1)c1ccccc1 [Compound 2-APB, 2-APB] | Only ruthenium red notably increased
O=C1NC(c2cccc([N+](=O)[O-])c2)=CCN1c1ccccc1O [icilin] | Only ruthenium red notably increased
CC12CCC(CC1)C(C)(C)O2 [eucalyptol] | Only ruthenium red notably increased
O=C/C=C/c1ccccc1 [cinnamaldehyde] | Only ruthenium red notably increased
CCCCCCCCCC(=O)O[C@@H]1[C@@H](C)[C@@]2(O)[C@@H](C=C(CO)C[C@@]3(O)C(=O)C(C)=C[C@@H]23)[C@@H]2C(C)(C)[C@]12OC(=O)CCCCCCCCC [Compound 4α-PDD, 4α-PDD] | Only ruthenium red notably increased

Same assay, conditions: varying concentrations with 10 μM diltiazem; 7 d; Figure S4

SMILES | L444P GC activity on co-application with diltiazem
C/C=C(/C)C(=O)O[C@H]1C(C)=C2[C@H]([C@@H]1OC(=O)CCCCCCC)[C@@](C)(OC(C)=O)C[C@H](OC(=O)CCC)[C@@]1(O)[C@H]2OC(=O)[C@@]1(C)O [thapsigargin] | dose-dependent decrease of GC activity

System: Ca^2+ channel
Assay: not given
Settings: previously reported; read-out: Ca^2+ channel blocker IC50; cited from earlier work

SMILES | IC50
CNCCN1C(=O)[C@H](O)[C@H](c2ccc(O)cc2)Sc2ccccc21 [Compound 4] | 127 µM
CN(C)CCN1C(=O)[C@H](O)[C@H](c2ccc(O)cc2)Sc2ccccc21 [Compound 3] | 45.5 µM
